Measurements reported in patent US11597727B2 (THE REGENTS OF THE UNIVERSITY OF CALIFORNIA, priority 2018, dated 2023).
pIC50: −log10 of the molar value.

Biological target: T1, integrin α2β1 (Homo sapiens, UniProt P05556+P17301)
Assay: Cell adhesion assay, adhesion to collagen in vitro (cell type not stated for these values)
Type: cell-based
Design: endogenous in cells
Conditions: compared with c15
Procedure: (§1) Cell adhesion Assay: Ninety-six-well flat-bottomed tissue culture plates were coated with rat tail collagen I for 1 hour at 37° C. After incubation, wells were blocked with 1% BSA at 37° C. for 1 hour. Control wells were filled with 1% BSA. HT1080 (human fibrosarcoma) cells (or human airway smooth muscle cells) were detached and resuspended in serum-free DMEM. Cells were incubated with anti-integrin alpha2 antibody control or 10-fold dilutions of each compound with a starting concentration of 10 uM for 15 minutes at 4° C. before plating. The plates were centrifuged at 10 g for 5 minutes before incubation for 1 hour at 37° C. in humidified 5% CO2. Nonadherent cells were removed by centrifugation (top side down) at 10 g for 5 minutes. Attached cells were stained with 0.5% crystal violet, and the wells were washed with PBS. The relative number of cells in each well was evaluated after solubilization in 40 μl of 2% Triton X-100 by measuring absorbance at 595 nm in a microplate reader. All determinations were carried out in triplicate.

T1 sequence (P17301 30-1181): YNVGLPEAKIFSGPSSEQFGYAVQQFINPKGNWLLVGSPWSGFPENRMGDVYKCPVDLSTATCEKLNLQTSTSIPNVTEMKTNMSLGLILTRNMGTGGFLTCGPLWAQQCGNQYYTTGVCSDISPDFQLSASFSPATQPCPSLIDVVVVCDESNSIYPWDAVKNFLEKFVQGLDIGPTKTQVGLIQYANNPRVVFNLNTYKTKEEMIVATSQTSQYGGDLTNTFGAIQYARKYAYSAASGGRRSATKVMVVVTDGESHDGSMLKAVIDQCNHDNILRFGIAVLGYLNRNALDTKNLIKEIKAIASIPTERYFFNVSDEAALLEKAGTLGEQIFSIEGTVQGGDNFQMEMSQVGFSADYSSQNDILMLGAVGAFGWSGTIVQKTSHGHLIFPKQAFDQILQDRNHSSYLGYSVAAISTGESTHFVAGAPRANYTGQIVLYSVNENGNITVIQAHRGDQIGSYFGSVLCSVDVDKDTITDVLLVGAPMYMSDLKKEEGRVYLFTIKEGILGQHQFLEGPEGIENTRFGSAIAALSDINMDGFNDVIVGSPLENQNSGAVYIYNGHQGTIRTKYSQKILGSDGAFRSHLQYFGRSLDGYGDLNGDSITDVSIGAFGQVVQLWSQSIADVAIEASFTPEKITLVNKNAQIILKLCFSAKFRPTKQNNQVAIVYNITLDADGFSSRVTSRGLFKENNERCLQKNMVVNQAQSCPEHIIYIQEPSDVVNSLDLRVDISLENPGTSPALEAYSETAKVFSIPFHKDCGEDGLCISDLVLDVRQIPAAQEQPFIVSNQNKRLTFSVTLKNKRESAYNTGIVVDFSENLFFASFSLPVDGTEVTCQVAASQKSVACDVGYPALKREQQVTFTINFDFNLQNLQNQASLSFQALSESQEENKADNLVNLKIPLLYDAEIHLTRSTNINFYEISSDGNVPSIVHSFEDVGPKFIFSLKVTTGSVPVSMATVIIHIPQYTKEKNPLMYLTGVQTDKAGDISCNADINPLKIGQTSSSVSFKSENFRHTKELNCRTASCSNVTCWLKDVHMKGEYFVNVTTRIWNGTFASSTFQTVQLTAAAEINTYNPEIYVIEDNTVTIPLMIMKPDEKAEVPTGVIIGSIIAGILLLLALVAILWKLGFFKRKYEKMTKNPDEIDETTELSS
T1 sequence (P05556 21-798): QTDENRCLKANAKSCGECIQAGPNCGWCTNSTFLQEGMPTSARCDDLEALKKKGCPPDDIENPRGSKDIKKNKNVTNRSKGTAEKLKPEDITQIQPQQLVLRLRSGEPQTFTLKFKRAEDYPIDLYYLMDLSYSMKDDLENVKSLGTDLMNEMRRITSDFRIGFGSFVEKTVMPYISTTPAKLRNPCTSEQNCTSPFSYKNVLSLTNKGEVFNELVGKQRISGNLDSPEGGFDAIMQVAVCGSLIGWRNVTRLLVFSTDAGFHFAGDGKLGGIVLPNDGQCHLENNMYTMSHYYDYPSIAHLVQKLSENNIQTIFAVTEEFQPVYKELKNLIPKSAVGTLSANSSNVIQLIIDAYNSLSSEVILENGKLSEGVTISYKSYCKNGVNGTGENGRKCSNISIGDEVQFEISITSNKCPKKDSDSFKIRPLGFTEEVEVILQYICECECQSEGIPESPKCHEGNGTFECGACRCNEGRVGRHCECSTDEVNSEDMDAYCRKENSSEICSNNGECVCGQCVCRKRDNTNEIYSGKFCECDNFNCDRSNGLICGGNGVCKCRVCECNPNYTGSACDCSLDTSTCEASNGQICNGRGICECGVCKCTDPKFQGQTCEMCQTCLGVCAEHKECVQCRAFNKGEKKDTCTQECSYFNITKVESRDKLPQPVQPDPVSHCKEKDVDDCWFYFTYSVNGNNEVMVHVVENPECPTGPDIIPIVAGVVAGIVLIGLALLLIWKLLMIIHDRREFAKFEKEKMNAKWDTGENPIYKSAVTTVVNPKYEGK

**Q.** Which “fold less potent than c15 in a cell adhesion assay” value does the source give for `O=C(NCc1ccccc1)NC[C@H](NC(=O)c1c(Cl)cccc1Cl)C(=O)O` [A2-4, (S)-3-(3-benzylureido)-2-(2,6-dichlorobenzamido)propanoic acid] here?
**A.** Its value is 2 fold.

Biological target: T1, integrin α2β1
Assay: HT 1080 cell adhesion assay on rat tail collagen I
Type: cell-based
Design: HT1080 (human fibrosarcoma) cells (or human airway smooth muscle cells) were detached and resuspended in serum-free DMEM; endogenous in cells; host or cells: HT1080 human fibrosarcoma cells
Conditions: HT1080 (human fibrosarcoma) cells on rat tail collagen I, absorbance at 595 nm, triplicate; read-out: IC50s from HT 1080 Cell adhesion assay
Procedure: as §1

**Q.** How did the pIC50 turn out when `O=C(NCc1cc(F)cc(F)c1)NC[C@H](NC(=O)c1c(Cl)cccc1Cl)C(=O)O` [KZ-1-32, (S)-2-(2,6-dichlorobenzamido)-3-(3-(3,5-difluorobenzyl)ureido)propanoic acid] was run?
**A.** Its pIC50 is under 4.00.

**Q.** With `O=C(NCc1c(F)cccc1F)NC[C@H](NC(=O)c1c(Cl)cccc1Cl)C(=O)O` [KZ-1-33, (S)-2-(2,6-dichlorobenzamido)-3-(3-(2,6-difluorobenzyl)ureido)propanoic acid] as the compound, how does the pIC50 read?
**A.** Its pIC50 is under 4.00.

**Q.** With `O=C(NCc1cccs1)NC[C@H](NC(=O)c1c(Cl)cccc1Cl)C(=O)O` [KZ-1-34, (S)-2-(2,6-dichlorobenzamido)-3-(3-(thiophen-2-ylmethyl)ureido)propanoic acid] as the compound, how does the pIC50 read?
**A.** Its pIC50 is 4.00 to 5.00.

**Q.** With `Nc1ccc(CNC(=O)NC[C@H](NC(=O)c2c(Cl)cccc2Cl)C(=O)O)cc1` [KZ-1-37, (S)-3-(3-(4-aminobenzyl)ureido)-2-(2,6-dichlorobenzamido)propanoic acid] as the compound, how does the pIC50 read?
**A.** The pIC50 was under 4.00.

**Q.** With `O=C(NCc1ccsc1)NC[C@H](NC(=O)c1c(Cl)cccc1Cl)C(=O)O` [KZ-1-38, (S)-2-(2,6-dichlorobenzamido)-3-(3-(thiophen-3-ylmethyl)ureido)propanoic acid] as the compound, how does the pIC50 read?
**A.** The pIC50 was 4.00 to 5.00.

**Q.** `Cc1ccccc1CNC(=O)NC[C@H](NC(=O)c1c(Cl)cccc1Cl)C(=O)O` [KZ-1-39, (S)-2-(2,6-dichlorobenzamido)-3-(3-(2-methylbenzyl)ureido)propanoic acid] was tested. Which pIC50 did it give?
**A.** The pIC50 was 4.00 to 5.00.

**Q.** How did the pIC50 turn out when `CC(C)(C)CNC(=O)NC[C@H](NC(=O)c1c(Cl)cccc1Cl)C(=O)O` [KZ-1-40, (S)-2-(2,6-dichlorobenzamido)-3-(3-neopentylureido)propanoic acid] was run?
**A.** The pIC50 was under 4.00.
